Measured values reported in patent US9346798B2, “Dihydrobenzoxazine and tetrahydroquinoxaline sodium channel inhibitors” (AMGEN INC., priority 2012, dated 2016).

Key:
Assay type in all cases: cell-based
[1] = target: T1, Nav 1.7 (Homo sapiens (Human), UniProt Q15858); assay: Nav 1.7 in vitro assay, IonWorks Quattro (IWQ) population patch-clamp; conditions: HEK 293 cells stably transfected with Nav 1.7; 26th pulse to -20 mV
[2] = target: T1, Nav 1.7; assay: Nav 1.7 in vitro PX assay, PatchXpress whole cell voltage clamp; conditions: HEK 293 cells stably transfected with human Nav1.7; partially inactivated state (20 to 50% inactivation)
Summary of the method: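 HEK293 cells stably expressing human Nav1.7, whole-cell voltage clamp at a holding potential giving 20–50% inactivation; currents elicited by 20 msec pulses to −10 mV at 0.1 Hz.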

[3] = target: Nav 1.5 (Homo sapiens (Human), UniProt Q14524); assay: Nav 1.5 in vitro assay, IonWorks Quattro (IWQ) population patch-clamp; conditions: HEK 293 cells stably transfected with Nav 1.5; 26th pulse to -20 mV
Nav 1.5, sequence (Q14524 whole entry): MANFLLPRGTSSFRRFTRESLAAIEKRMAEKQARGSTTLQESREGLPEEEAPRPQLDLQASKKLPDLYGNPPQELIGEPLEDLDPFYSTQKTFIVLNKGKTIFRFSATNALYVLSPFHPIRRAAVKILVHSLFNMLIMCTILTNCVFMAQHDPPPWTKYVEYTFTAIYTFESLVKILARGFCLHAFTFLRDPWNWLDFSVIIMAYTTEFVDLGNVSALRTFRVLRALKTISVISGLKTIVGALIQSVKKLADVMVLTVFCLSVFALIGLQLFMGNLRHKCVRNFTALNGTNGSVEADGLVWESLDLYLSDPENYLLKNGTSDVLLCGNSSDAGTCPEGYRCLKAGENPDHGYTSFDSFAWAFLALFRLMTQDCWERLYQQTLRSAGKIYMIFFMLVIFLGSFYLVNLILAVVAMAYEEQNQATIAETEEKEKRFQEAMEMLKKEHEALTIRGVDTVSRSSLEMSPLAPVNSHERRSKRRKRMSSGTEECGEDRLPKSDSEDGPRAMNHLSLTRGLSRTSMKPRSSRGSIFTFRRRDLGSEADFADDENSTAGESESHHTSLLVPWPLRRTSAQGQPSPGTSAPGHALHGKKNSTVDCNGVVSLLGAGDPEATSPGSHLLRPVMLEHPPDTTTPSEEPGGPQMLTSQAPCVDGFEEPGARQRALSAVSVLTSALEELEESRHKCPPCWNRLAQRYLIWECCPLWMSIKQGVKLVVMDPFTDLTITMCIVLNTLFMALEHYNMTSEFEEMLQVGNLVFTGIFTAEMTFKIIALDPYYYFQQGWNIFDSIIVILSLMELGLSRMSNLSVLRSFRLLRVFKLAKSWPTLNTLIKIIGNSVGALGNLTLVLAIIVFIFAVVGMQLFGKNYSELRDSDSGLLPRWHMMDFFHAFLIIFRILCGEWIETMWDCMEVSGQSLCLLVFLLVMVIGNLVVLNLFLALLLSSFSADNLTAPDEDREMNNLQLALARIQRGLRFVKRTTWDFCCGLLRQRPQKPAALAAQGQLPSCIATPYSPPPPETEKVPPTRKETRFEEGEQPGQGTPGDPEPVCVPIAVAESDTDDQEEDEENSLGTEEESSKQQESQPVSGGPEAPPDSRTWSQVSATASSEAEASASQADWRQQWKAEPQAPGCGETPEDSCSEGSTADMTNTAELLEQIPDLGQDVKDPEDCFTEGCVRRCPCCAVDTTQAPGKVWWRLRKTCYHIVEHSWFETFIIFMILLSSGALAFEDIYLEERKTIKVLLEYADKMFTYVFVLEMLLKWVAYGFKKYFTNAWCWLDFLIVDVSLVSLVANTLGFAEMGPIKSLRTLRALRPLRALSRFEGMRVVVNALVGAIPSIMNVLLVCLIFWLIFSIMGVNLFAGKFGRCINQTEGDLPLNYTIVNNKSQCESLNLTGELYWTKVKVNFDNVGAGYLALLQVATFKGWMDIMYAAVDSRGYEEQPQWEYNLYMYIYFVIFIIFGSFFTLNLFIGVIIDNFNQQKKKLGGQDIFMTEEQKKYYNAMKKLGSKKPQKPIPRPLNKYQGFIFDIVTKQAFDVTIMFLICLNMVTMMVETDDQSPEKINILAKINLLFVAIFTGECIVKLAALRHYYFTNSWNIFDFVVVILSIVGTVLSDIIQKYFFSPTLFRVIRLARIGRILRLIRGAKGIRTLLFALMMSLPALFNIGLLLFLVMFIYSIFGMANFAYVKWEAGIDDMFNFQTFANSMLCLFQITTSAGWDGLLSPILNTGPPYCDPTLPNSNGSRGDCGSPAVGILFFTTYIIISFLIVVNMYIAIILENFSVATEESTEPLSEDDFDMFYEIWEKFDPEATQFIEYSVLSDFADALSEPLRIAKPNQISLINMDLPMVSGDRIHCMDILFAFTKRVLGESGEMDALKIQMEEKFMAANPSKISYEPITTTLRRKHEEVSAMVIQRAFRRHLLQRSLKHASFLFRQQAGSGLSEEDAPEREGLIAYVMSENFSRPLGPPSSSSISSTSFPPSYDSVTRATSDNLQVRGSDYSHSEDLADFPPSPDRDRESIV

T1 sequence (Q15858 whole entry): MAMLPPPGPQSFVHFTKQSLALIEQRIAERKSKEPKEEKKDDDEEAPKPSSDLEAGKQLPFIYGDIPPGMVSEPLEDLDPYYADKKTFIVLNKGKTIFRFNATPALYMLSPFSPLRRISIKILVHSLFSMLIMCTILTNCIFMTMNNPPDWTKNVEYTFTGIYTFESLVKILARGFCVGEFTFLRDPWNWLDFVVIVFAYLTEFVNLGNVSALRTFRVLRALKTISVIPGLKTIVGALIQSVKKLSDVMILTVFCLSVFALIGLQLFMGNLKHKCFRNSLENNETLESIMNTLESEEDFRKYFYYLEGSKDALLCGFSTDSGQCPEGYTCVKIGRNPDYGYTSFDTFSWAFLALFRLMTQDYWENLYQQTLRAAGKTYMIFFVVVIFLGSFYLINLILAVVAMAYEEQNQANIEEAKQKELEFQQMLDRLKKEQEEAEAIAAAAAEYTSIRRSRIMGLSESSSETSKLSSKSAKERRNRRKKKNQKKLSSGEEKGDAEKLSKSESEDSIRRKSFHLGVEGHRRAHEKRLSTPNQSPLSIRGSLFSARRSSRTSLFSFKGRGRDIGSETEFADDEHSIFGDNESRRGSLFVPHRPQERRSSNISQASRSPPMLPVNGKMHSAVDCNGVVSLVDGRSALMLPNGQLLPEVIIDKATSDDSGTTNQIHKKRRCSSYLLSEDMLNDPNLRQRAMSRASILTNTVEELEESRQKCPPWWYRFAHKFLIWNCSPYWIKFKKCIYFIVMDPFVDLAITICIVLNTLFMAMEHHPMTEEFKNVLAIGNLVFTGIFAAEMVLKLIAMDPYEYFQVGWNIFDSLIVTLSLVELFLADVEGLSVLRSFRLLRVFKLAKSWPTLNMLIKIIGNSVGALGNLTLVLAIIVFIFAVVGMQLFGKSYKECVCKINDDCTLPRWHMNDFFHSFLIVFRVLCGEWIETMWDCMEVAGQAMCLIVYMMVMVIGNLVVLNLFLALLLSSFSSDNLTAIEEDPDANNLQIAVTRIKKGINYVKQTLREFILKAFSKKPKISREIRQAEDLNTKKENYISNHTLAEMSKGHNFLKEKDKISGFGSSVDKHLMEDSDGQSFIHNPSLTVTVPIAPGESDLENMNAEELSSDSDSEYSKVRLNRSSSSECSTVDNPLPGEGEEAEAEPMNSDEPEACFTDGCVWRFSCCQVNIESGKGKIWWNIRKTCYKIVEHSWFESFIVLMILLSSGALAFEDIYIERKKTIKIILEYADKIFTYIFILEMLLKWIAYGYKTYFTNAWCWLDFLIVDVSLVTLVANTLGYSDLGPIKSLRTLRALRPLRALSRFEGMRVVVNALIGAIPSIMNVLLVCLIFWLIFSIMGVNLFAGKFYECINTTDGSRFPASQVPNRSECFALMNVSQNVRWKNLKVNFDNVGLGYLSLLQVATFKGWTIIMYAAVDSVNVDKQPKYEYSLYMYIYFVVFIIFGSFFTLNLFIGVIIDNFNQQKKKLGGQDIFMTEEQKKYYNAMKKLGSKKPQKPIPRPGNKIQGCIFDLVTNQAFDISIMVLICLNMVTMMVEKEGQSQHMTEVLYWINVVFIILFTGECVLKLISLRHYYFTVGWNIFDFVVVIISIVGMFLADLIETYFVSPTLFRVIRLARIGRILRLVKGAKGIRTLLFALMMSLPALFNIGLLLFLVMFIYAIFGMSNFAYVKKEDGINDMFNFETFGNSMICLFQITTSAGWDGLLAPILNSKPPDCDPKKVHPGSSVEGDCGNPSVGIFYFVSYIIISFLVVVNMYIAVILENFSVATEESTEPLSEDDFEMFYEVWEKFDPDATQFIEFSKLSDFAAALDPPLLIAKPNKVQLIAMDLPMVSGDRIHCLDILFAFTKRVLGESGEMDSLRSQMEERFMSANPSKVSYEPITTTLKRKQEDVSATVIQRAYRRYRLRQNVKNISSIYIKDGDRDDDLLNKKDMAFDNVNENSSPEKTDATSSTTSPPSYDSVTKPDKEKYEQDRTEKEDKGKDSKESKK

`COc1cnc(N2CCOc3cc(S(=O)(=O)Nc4nccs4)ccc32)c(OC)n1` [Example 143, 4-(3,5-Dimethoxypyrazin-2-yl)-N-(thiazol-2-yl)-3,4-dihydro-2H-benzo[b][1,4]oxazine-7-sulfonamide] gave an IC50 [1] of 1010 nM, an IC50 [2] of 9070 nM and an IC50 [3] greater than 10000 nM.
For `COc1cnc(N2CCOc3cc(S(=O)(=O)Nc4nccs4)ccc32)c(OC)c1` [Example 144, 4-(3,5-Dimethoxypyridin-2-yl)-N-(thiazol-2-yl)-3,4-dihydro-2H-benzo[b][1,4]oxazine-7-sulfonamide], the IC50 [1] was 894 nM, the IC50 [2] was 7670 nM and the IC50 [3] was greater than 10000 nM.
`COc1ncc(C(F)(F)F)cc1N1CCOc2cc(S(=O)(=O)Nc3nccs3)ccc21` [Example 145, 4-(2-Methoxy-5-(trifluoromethyl)pyridin-3-yl)-N-(thiazol-2-yl)-3,4-dihydro-2H-benzo[b][1,4]oxazine-7-sulfonamide] showed an IC50 [1] of 235 nM, an IC50 [2] of 11800 nM and an IC50 [3] of 7380 nM.
Work on `Cc1cc(OC(F)F)cnc1N1CCOc2cc(S(=O)(=O)Nc3nccs3)ccc21` [Example 146, 4-(5-(Difluoromethoxy)-3-methylpyridin-2-yl)-N-(thiazol-2-yl)-3,4-dihydro-2H-benzo[b][1,4]oxazine-7-sulfonamide] yielded an IC50 [1] of 416 nM, an IC50 [2] of 4730 nM and an IC50 [3] of 5220 nM.
Compound `O=S(=O)(Nc1nccs1)c1ccc2c(c1)OCCN2c1ccccc1-c1ccncc1` [Example 147, 4-(2-(Pyridin-4-yl)phenyl)-N-(thiazol-2-yl)-3,4-dihydro-2H-benzo[b][1,4]oxazine-7-sulfonamide] has an IC50 [1] of 107 nM, an IC50 [2] of 1990 nM and an IC50 [3] greater than 10000 nM.
Work on `Cn1nccc1-c1ccccc1N1CCOc2cc(S(=O)(=O)Nc3nccs3)ccc21` [Example 148, 4-(2-(1-Methyl-1H-pyrazol-5-yl)phenyl)-N-(thiazol-2-yl)-3,4-dihydro-2H-benzo[b][1,4]oxazine-7-sulfonamide] yielded an IC50 [1] of 66.5 nM, an IC50 [2] of 782 nM and an IC50 [3] greater than 10000 nM.
In the case of `O=S(=O)(Nc1nccs1)c1ccc2c(c1)OCCN2c1ccccc1C1CCOCC1` [Example 149, 4-(2-(Tetrahydro-2H-Pyran-4-Yl)Phenyl)-N-(Thiazol-2-Yl)-3,4-Dihydro-2H-Benzo[B][1,4]Oxazine-7-Sulfonamide], the IC50 [1] is reported as 198 nM, the IC50 [2] is reported as 2550 nM and the IC50 [3] is reported as greater than 10000 nM.
With `COc1cc(F)ccc1N1CCOc2cc(S(=O)(=O)Nc3nccs3)ccc21` [Example 150, 4-(4-Fluoro-2-methoxyphenyl)-N-(thiazol-2-yl)-3,4-dihydro-2H-benzo[b][1,4]oxazine-7-sulfonamide] the IC50 [1] was 17 nM, the IC50 [2] was 192 nM and the IC50 [3] was 5580 nM.
In the case of `COc1ccc(F)cc1N1CCOc2cc(S(=O)(=O)Nc3nccs3)ccc21` [Example 151, 4-(5-Fluoro-2-methoxyphenyl)-N-(thiazol-2-yl)-3,4-dihydro-2H-benzo[b][1,4]oxazine-7-sulfonamide], the IC50 [1] is reported as 13.5 nM, the IC50 [2] is reported as 158 nM and the IC50 [3] is reported as greater than 10000 nM.
`N#Cc1cc(C(F)(F)F)ccc1N1CCOc2cc(S(=O)(=O)Nc3cscn3)ccc21` [Example 152, 4-(2-cyano-4-(trifluoromethyl)phenyl)-N-(thiazol-4-yl)-3,4-dihydro-2H-benzo[b][1,4]oxazine-7-sulfonamide] was tested, and the IC50 [1] was 1630 nM, the IC50 [2] was 2780 nM and the IC50 [3] was 9420 nM.
In the case of `O=S(=O)(Nc1nccs1)c1ccc2c(c1)OCCN2c1ccc(Cl)c(F)c1` [Example 155, 4-(4-Chloro-3-Fluorophenyl)-N-(Thiazol-2-Yl)-3,4-Dihydro-2H-Benzo[B][1,4]Oxazine-7-Sulfonamide 2,2,2-Trifluoroacetate], the IC50 [1] is reported as 2370 nM, the IC50 [2] is reported as 12600 nM and the IC50 [3] is reported as greater than 10000 nM.
For `Cc1cc(N2CCOc3cc(S(=O)(=O)Nc4nccs4)ccc32)ccc1Cl` [Example 156, 4-(4-Chloro-3-Methylphenyl)-N-(Thiazol-2-Yl)-3,4-Dihydro-2H-Benzo[B][1,4]Oxazine-7-Sulfonamide 2,2,2-Trifluoroacetate], the IC50 [1] was 2280 nM, the IC50 [2] was 2600 nM and the IC50 [3] was 3930 nM.
`COc1cnccc1N1CCOc2cc(S(=O)(=O)Nc3nccs3)ccc21` [Example 158, 4-(3-methoxypyridin-4-yl)-N-(thiazol-2-yl)-3,4-dihydro-2H-benzo[b][1,4]oxazine-7-sulfonamide] showed an IC50 [1] of 1490 nM, an IC50 [2] of 4510 nM and an IC50 [3] greater than 10000 nM.
`N#Cc1cccc(F)c1N1CCOc2cc(S(=O)(=O)Nc3nccs3)ccc21` [Example 159, 4-(2-Cyano-6-Fluorophenyl)-N-(Thiazol-2-Yl)-3,4-Dihydro-2H-Benzo[B][1,4]Oxazine-7-Sulfonamide] was tested, and the IC50 [1] was 1420 nM, the IC50 [2] was 8150 nM and the IC50 [3] was greater than 10000 nM.
`O=S(=O)(Nc1nccs1)c1ccc2c(c1)OCCN2c1ccccc1` [Example 165, 4-phenyl-N-(thiazol-2-yl)-3,4-dihydro-2H-benzo[b][1,4]oxazine-7-sulfonamide] gave an IC50 [1] of 700 nM, an IC50 [2] of 3750 nM and an IC50 [3] greater than 10000 nM.
Work on `O=S(=O)(Nc1nccs1)c1ccc2c(c1)OCCN2c1cccc2cccnc12` [Example 166, 4-(Quinolin-8-Yl)-N-(Thiazol-2-Yl)-3,4-Dihydro-2H-Benzo[B][1,4]Oxazine-7-Sulfonamide 2,2,2-Trifluoroacetate] yielded an IC50 [1] of 683 nM, an IC50 [2] of 11100 nM and an IC50 [3] greater than 10000 nM.
`N#Cc1ccc(N2CCOc3cc(S(=O)(=O)Nc4nccs4)ccc32)cc1OC(F)(F)F` [Example 167, 4-(4-cyano-3-(trifluoromethoxy)phenyl)-N-(thiazol-2-yl)-3,4-dihydro-2H-benzo[b][1,4]oxazine-7-sulfonamide] gave an IC50 [1] of 652 nM, an IC50 [2] of 6150 nM and an IC50 [3] greater than 10000 nM.
In the case of `Cc1ccc(C(C)C)c(N2CCOc3cc(S(=O)(=O)Nc4nccs4)ccc32)c1` [Example 168, 4-(2-Isopropyl-5-Methylphenyl)-N-(Thiazol-2-Yl)-3,4-Dihydro-2H-Benzo[B][1,4]Oxazine-7-Sulfonamide 2,2,2-Trifluoroacetate], the IC50 [1] is reported as 643 nM, the IC50 [2] is reported as 3250 nM and the IC50 [3] is reported as greater than 10000 nM.
With `O=S(=O)(Nc1nccs1)c1ccc2c(c1)OCCN2c1ccc(Cl)cc1F` [Example 170, 4-(4-Chloro-2-Fluorophenyl)-N-(Thiazol-2-Yl)-3,4-Dihydro-2H-Benzo[B][1,4]Oxazine-7-Sulfonamide 2,2,2-Trifluoroacetate] the IC50 [1] was 401 nM, the IC50 [2] was 2620 nM and the IC50 [3] was greater than 10000 nM.
With `O=S(=O)(Nc1nccs1)c1ccc2c(c1)OCCN2c1cccc(OC(F)F)c1` [Example 172, 4-(3-(Difluoromethoxy)Phenyl)-N-(Thiazol-2-Yl)-3,4-Dihydro-2H-Benzo[B][1,4]Oxazine-7-Sulfonamide 2,2,2-Trifluoroacetate] the IC50 [1] was 244 nM, the IC50 [2] was 936 nM and the IC50 [3] was greater than 10000 nM.
Compound `O=S(=O)(Nc1nccs1)c1ccc2c(c1)OCCN2c1cccc(C(F)(F)F)c1` [Example 173, N-(Thiazol-2-Yl)-4-(3-(Trifluoromethyl)Phenyl)-3,4-Dihydro-2H-Benzo[B][1,4]Oxazine-7-Sulfonamide 2,2,2-Trifluoroacetate] has an IC50 [1] of 236 nM, an IC50 [2] of 1650 nM and an IC50 [3] greater than 10000 nM.
In the case of `N#CCc1cccc(N2CCOc3cc(S(=O)(=O)Nc4nccs4)ccc32)c1` [Example 174, 4-(3-(Cyanomethyl)Phenyl)-N-(Thiazol-2-Yl)-3,4-Dihydro-2H-Benzo[B][1,4]Oxazine-7-Sulfonamide 2,2,2-Trifluoroacetate], the IC50 [1] is reported as 211 nM, the IC50 [2] is reported as 822 nM and the IC50 [3] is reported as 2010 nM.
Work on `N#Cc1cc(N2CCOc3cc(S(=O)(=O)Nc4nccs4)ccc32)ccc1F` [Example 175, 4-(3-Cyano-4-Fluorophenyl)-N-(Thiazol-2-Yl)-3,4-Dihydro-2H-Benzo[B][1,4]Oxazine-7-Sulfonamide 2,2,2-Trifluoroacetate] yielded an IC50 [1] of 202 nM, an IC50 [2] of 1390 nM and an IC50 [3] of 5080 nM.
`N#Cc1cc(F)ccc1N1CCOc2cc(S(=O)(=O)Nc3nccs3)ccc21` [Example 177, 4-(2-cyano-4-fluorophenyl)-N-(thiazol-2-yl)-3,4-dihydro-2H-benzo[b][1,4]oxazine-7-sulfonamide] was tested, and the IC50 [1] was 178 nM, the IC50 [2] was 1490 nM and the IC50 [3] was greater than 10000 nM.
In the case of `Cc1ccc(Cl)cc1N1CCOc2cc(S(=O)(=O)Nc3nccs3)ccc21` [Example 178, 4-(5-Chloro-2-Methylphenyl)-N-(Thiazol-2-Yl)-3,4-Dihydro-2H-Benzo[B][1,4]Oxazine-7-Sulfonamide 2,2,2-Trifluoroacetate], the IC50 [1] is reported as 129 nM, the IC50 [2] is reported as 678 nM and the IC50 [3] is reported as 5600 nM.
Compound `O=S(=O)(Nc1nccs1)c1ccc2c(c1)OCCN2c1ccccc1OC(F)F` [Example 179, 4-(2-(Difluoromethoxy)Phenyl)-N-(Thiazol-2-Yl)-3,4-Dihydro-2H-Benzo[B][1,4]Oxazine-7-Sulfonamide 2,2,2-Trifluoroacetate] has an IC50 [1] of 112 nM, an IC50 [2] of 750 nM and an IC50 [3] of 5640 nM.
`O=S(=O)(Nc1nccs1)c1ccc2c(c1)OCCN2c1cc(Cl)ccc1Cl` [Example 180, 4-(2,5-Dichlorophenyl)-N-(Thiazol-2-Yl)-3,4-Dihydro-2H-Benzo[B][1,4]Oxazine-7-Sulfonamide 2,2,2-Trifluoroacetate] gave an IC50 [1] of 104 nM, an IC50 [2] of 850 nM and an IC50 [3] of 6940 nM.
With `COc1cc(C#N)ccc1N1CCOc2cc(S(=O)(=O)Nc3nccs3)ccc21` [Example 181, 4-(4-Cyano-2-Methoxyphenyl)-N-(Thiazol-2-Yl)-3,4-Dihydro-2H-Benzo[B][1,4]Oxazine-7-Sulfonamide 2,2,2-Trifluoroacetate] the IC50 [1] was 7.5 nM, the IC50 [2] was 175 nM and the IC50 [3] was greater than 10000 nM.
With `O=S(=O)(Nc1nccs1)c1ccc2c(c1)OCCN2c1ccc(C(F)(F)F)cn1` [Example 183, N-(Thiazol-2-Yl)-4-(5-(Trifluoromethyl)Pyridin-2-Yl)-3,4-Dihydro-2H-Benzo[B][1,4]Oxazine-7-Sulfonamide] the IC50 [1] was 177 nM, the IC50 [2] was 3320 nM and the IC50 [3] was greater than 10000 nM.
